One experiment deals with Erk1/2 phosphorylation. In words: Erk1/2 Phosphorylation Assay (western blot), Panc-1. The experiment is classed as cell-based, human. Particulars: at 10 μM, * = activation. In a few lines:
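KRas G12D Panc-1 cells were treated 6 h at 37° C with compound at 10 μM or serial dilutions for IC50 (0.3% DMSO). In method 1, cells were serum-starved overnight (0.5% FBS) and then given 1.5 ng/ml EGF for 15 min. In method 2, cells stayed in 10% FBS without stimulation. Lysate phospho-Erk1/2 (Thr202/Tyr204) was read by western blot.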
For orientation: In western blotting, separated proteins are transferred to a membrane and probed.

A further experiment has as its system TNF-alpha. As to the kind of experiment: TNF-alpha Quantification Assay (ELISA), LPS-stimulated RAW 264.7. It is filed as cell-based. Particulars: Mus musculus, RAW264.7; at 10 μM; read-out: TNFα: % inh. For orientation: In an ELISA, binding on a coated surface is turned into a signal by an enzyme label.
The subject of experiment [1] is MiaPaca-2 (expressing KRAS G12C mutant). In words: Proliferation Assay (Cell Viability Assay). Particulars: Homo sapiens, MIA PaCa-2. The experiment is classed as cell-based. The method in brief:
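MiaPaca-2 cells (KRAS G12C) were grown in DMEM-high glucose with 10% FBS, seeded at 2000–5000 cells/well and cultured overnight. Compounds were added at 10 μM final, or as serial dilutions for IC50, in 0.3% DMSO/10% FBS for 2–4 days at 37 °C, 5% CO2. Viability was measured with CellTiter 96 Aqueous One and % inhibition calculated.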

The mark [2] stands for this setting: read-out: Proliferation in MiaPaca-2: IC50.

Counter-ions that a name gives are not always drawn. Like-named read-outs stand apart in the source and are kept apart here.

As for `CO[C@H]1CC[C@@H](Nc2nc(-c3nccn3C)nn3cc(-c4ccn(C(C)C)n4)c(C)c23)C1` (racemic) [Compound 1, rac 6-(1-Isopropyl-1H-pyrazol-3-yl)-N-((1R,3S)-3-methoxycyclopentyl)-5-methyl-2-(1-methyl-1H-imidazol-2-yl)pyrrolo[2,1-f][1,2,4]triazin-4-amine], the “% inh of Erk1/2 phosphorylation in Panc-1” value (from here on “% inh”) in the experiment on Erk1/2 phosphorylation is 0 (0% inhibition). Moreover, the inhibition at 10 µM in the experiment on TNF-alpha fell in the range of 1 to 24%. The IC50 in experiment [1] (setting [2]) is more than 1000 nM.

As for `CO[C@H]1CC[C@@H](Nc2nc(-c3nccn3C)nn3cc(-c4ccn(C(C)C)n4)c(-c4ccccc4)c23)C1` (racemic) [Compound 18, rac 6-(1-Isopropyl-1H-pyrazol-3-yl)-N-((1R,3S)-3-methoxycyclopentyl)-2-(1-methyl-1H-imidazol-2-yl)-5-phenylpyrrolo[2,1-f][1,2,4]triazin-4-amine hydrochloride], the “% inh” value with Erk1/2 phosphorylation was “C (50-84% inhibition)”. In addition, in the experiment with TNF-alpha, the inhibition at 10 µM lay within 1 to 24%. The IC50 in experiment [1] (setting [2]) is more than 1000 nM.

For `COc1cc(Nc2nc(-c3nccn3C)nn3cc(-c4ccn(C(C)C)n4)c(C)c23)ccn1` [Compound 87, 6-(1-Isopropyl-1H-pyrazol-3-yl)-N-(2-methoxypyridin-4-yl)-5-methyl-2-(1-methyl-1H-imidazol-2-yl)pyrrolo[2,1-f][1,2,4]triazin-4-amine], the “% inh” value with Erk1/2 phosphorylation is given as “C* (46-84% activation)”. For the same compound, the inhibition at 10 µM in the experiment on TNF-alpha was determined as 0%. For the same compound, the IC50 in experiment [1] (setting [2]) was more than 1000 nM.

For the compound `COc1cccc(Nc2nc(-c3nccn3C)nn3cc(-c4ccn(C(C)C)n4)c(C)c23)n1` [Compound 7, 6-(1-Isopropyl-1H-pyrazol-3-yl)-N-(6-methoxypyridin-2-yl)-5-methyl-2-(1-methyl-1H-imidazol-2-yl)pyrrolo[2,1-f][1,2,4]triazin-4-amine], in the experiment on Erk1/2 phosphorylation, the “% inh” value is given as 0 (0% inhibition). Besides, the inhibition at 10 µM in the experiment on TNF-alpha is 0%. The IC50 in experiment [1] (setting [2]) is more than 1000 nM.

Regarding `COC[C@@H]1CC[C@@H]1CNc1nc(-c2nccn2C)nn2cc(-c3ccn(C(C)C)n3)c(-c3ccccc3)c12` (racemic) [Compound 20, rac 6-(1-Isopropyl-1H-pyrazol-3-yl)-N-(((1S,2R)-2-(methoxymethyl)cyclobutyl)methyl)-2-(1-methyl-1H-imidazol-2-yl)-5-phenylpyrrolo[2,1-f][1,2,4]triazin-4-amine], the “% inh” value in the experiment on Erk1/2 phosphorylation is given as “D (85-100% inhibition)”. The inhibition at 10 µM in the experiment on TNF-alpha lay in the range of 1 to 24%. Further, the IC50 in experiment [1] (setting [2]) was more than 1000 nM.

For the compound `COCCNc1nc(-c2nccn2C)nn2cc(-c3ccn(C(C)C)n3)c(C)c12` [Compound 5, 6-(1-Isopropyl-1H-pyrazol-3-yl)-N-(2-methoxyethyl)-5-methyl-2-(1-methyl-1H-imidazol-2-yl)pyrrolo[2,1-f][1,2,4]triazin-4-amine], the “% inh” value in the experiment with Erk1/2 phosphorylation is 0 (0% inhibition). In addition, the inhibition at 10 µM in the experiment with TNF-alpha is 0%. For the same compound, the IC50 in experiment [1] (setting [2]) was more than 1000 nM.

For the compound `Cc1c(-c2ccn(C(C)C)n2)cn2nc(-c3nccn3C)nc(Nc3ccn(C4CC4)n3)c12` [Compound 84, N-(1-Cyclopropyl-1H-pyrazol-3-yl)-6-(1-isopropyl-1H-pyrazol-3-yl)-5-methyl-2-(1-methyl-1H-imidazol-2-yl)pyrrolo[2,1-f][1,2,4]triazin-4-amine], in the experiment with Erk1/2 phosphorylation, the “% inh” value was “D* (85-100% activation)”. Besides, the inhibition at 10 µM in the experiment with TNF-alpha is 0%. Further, the IC50 in experiment [1] (Proliferation assay, MiaPaca-2, read-out: MiaPaca-2 IC50 (nM) Pancreatic) is 1 to 10 nM; in experiment [1] (setting [2]), less than 150 nM.

Take `COCc1noc(Nc2nc(-c3nccn3C)nn3cc(-c4ccn(C(C)C)n4)c(C)c23)n1` [Compound 82, N-(6-(1-Isopropyl-1H-pyrazol-3-yl)-5-methyl-2-(1-methyl-1H-imidazol-2-yl)pyrrolo[2,1-f][1,2,4]triazin-4-yl)-3-(methoxymethyl)-1,2,4-oxadiazol-5-amine]: in the experiment on Erk1/2 phosphorylation, the “% inh” value is on record as “A* (1-25% activation)”. In addition, the inhibition at 10 µM in the experiment with TNF-alpha was 25 to 49%. In experiment [1] (setting [2]), the IC50 is less than 150 nM.

Consider `COc1cccc(-c2cn3nc(-c4nccn4C)nc(N[C@@H]4CC[C@@H](OC)C4)c3c2-c2ccccc2)c1Cl.Cl` (racemic) [Compound 34, rac 6-(2-Chloro-3-methoxyphenyl)-N-((1R,3R)-3-methoxycyclopentyl)-2-(1-methyl-1H-imidazol-2-yl)-5-phenylpyrrolo[2,1-f][1,2,4]triazin-4-amine hydrochloride], for which, in the experiment on Erk1/2 phosphorylation, the “% inh” value is “D (85-100% inhibition)”. In addition, the inhibition at 10 µM in the experiment on TNF-alpha was in the range of 1 to 24%. In addition, in experiment [1] (setting [2]), the IC50 lay in the range of 510 to 1000 nM.

In the case of `COCc1csc(Nc2nc(-c3nccn3C)nn3cc(-c4ccn(C(C)C)n4)c(C)c23)n1` [Compound 79, N-(6-(1-Isopropyl-1H-pyrazol-3-yl)-5-methyl-2-(1-methyl-1H-imidazol-2-yl)pyrrolo[2,1-f][1,2,4]triazin-4-yl)-4-(methoxymethyl)thiazol-2-amine], the “% inh” value with Erk1/2 phosphorylation is listed as “D* (85-100% activation)”. In addition, the inhibition at 10 µM in the experiment on TNF-alpha fell in the range of 25 to 49%. In addition, in experiment [1] (setting [2]), the IC50 was less than 150 nM.

In the case of `Cn1ccnc1-c1nc(O)c2c(-c3ccccc3)ccn2n1` [Compound 39, 2-(1-Methyl-1H-imidazol-2-yl)-5-phenylpyrrolo[2,1-f][1,2,4]triazin-4-ol], the “% inh” value with Erk1/2 phosphorylation is recorded as 0 (0% inhibition). Also, the inhibition at 10 µM in the experiment on TNF-alpha is 0%. Further, the IC50 in experiment [1] (setting [2]) was more than 1000 nM.

As for `COc1cccnc1Nc1nc(-c2nccn2C)nn2cc(-c3ccn(C(C)C)n3)c(C)c12` [Compound 89, 6-(1-Isopropyl-1H-pyrazol-3-yl)-N-(3-methoxypyridin-2-yl)-5-methyl-2-(1-methyl-1H-imidazol-2-yl)pyrrolo[2,1-f][1,2,4]triazin-4-amine], in the experiment with Erk1/2 phosphorylation, the “% inh” value is “D* (85-100% activation)”. Further, the inhibition at 10 µM in the experiment on TNF-alpha was 25 to 49%. For the same compound, the IC50 in experiment [1] (setting [2]) was less than 150 nM.

As to `Cc1c(-c2ccn(C(C)C)n2)cn2nc(-c3nccn3C)nc(Nc3cnn(C(C)C)n3)c12` [Compound 77, 6-(1-Isopropyl-1H-pyrazol-3-yl)-N-(2-isopropyl-2H-1,2,3-triazol-4-yl)-5-methyl-2-(1-methyl-1H-imidazol-2-yl)pyrrolo[2,1-f][1,2,4]triazin-4-amine], the “% inh” value in the experiment with Erk1/2 phosphorylation is reported as “D* (85-100% activation)”. For the same compound, the inhibition at 10 µM with TNF-alpha lay within 25 to 49%. Further, in experiment [1] (setting [2]), the IC50 is more than 1000 nM.

For the compound `COC1CCCN(c2nc(-c3nccn3C)nn3cc(-c4ccn(C(C)C)n4)c(-c4ccccc4)c23)C1` (racemic) [Compound 21, rac 6-(1-Isopropyl-1H-pyrazol-3-yl)-4-(3-methoxypiperidin-1-yl)-2-(1-methyl-1H-imidazol-2-yl)-5-phenylpyrrolo[2,1-f][1,2,4]triazine], in the experiment with Erk1/2 phosphorylation, the “% inh” value is 0 (0% inhibition). Moreover, in the experiment on TNF-alpha, the inhibition at 10 µM amounted to 0%. In experiment [1] (setting [2]), the IC50 was more than 1000 nM.

With `Cc1c(-c2ccn(C(C)C)n2)cn2nc(-c3nccn3C)nc(Nc3cn(C(C)C)nn3)c12` [Compound 78, N-(1-Isopropyl-1H-1,2,3-triazol-4-yl)-6-(1-isopropyl-1H-pyrazol-3-yl)-5-methyl-2-(1-methyl-1H-imidazol-2-yl)pyrrolo[2,1-f][1,2,4]triazin-4-amine], the “% inh” value in the experiment on Erk1/2 phosphorylation is “D* (85-100% activation)”. Besides, in the experiment with TNF-alpha, the inhibition at 10 µM is 25 to 49%. The IC50 in experiment [1] (setting [2]) lay in the range of 150 to 500 nM.

Regarding `COc1nccc(Nc2nc(-c3nccn3C)nn3cc(-c4ccn(C(C)C)n4)c(C)c23)n1` [Compound 86, 6-(1-Isopropyl-1H-pyrazol-3-yl)-N-(2-methoxypyrimidin-4-yl)-5-methyl-2-(1-methyl-1H-imidazol-2-yl)pyrrolo[2,1-f][1,2,4]triazin-4-amine], in the experiment with Erk1/2 phosphorylation, the “% inh” value is on record as “D* (85-100% activation)”. Also, the inhibition at 10 µM with TNF-alpha was 1 to 24%. The IC50 in experiment [1] (setting [2]) was 150 to 500 nM.

As for `COC[C@@H]1CC[C@@H]1CNc1nc(-c2nccn2C)nn2cc(-c3ccn(C(C)C)n3)c(C)c12` (racemic) [Compound 3, rac 6-(1-Isopropyl-1H-pyrazol-3-yl)-N-(((1S,2R)-2-(methoxymethyl)cyclobutyl)methyl)-5-methyl-2-(1-methyl-1H-imidazol-2-yl)pyrrolo[2,1-f][1,2,4]triazin-4-amine], the “% inh” value with Erk1/2 phosphorylation is “D (85-100% inhibition)”. For the same compound, in the experiment on TNF-alpha, the inhibition at 10 µM lay within 25 to 49%. Besides, the IC50 in experiment [1] (setting [2]) was more than 1000 nM.

Consider `COc1cnc(Nc2nc(-c3nccn3C)nn3cc(-c4ccn(C(C)C)n4)c(C)c23)cn1` [Compound 83, 6-(1-Isopropyl-1H-pyrazol-3-yl)-N-(5-methoxypyrazin-2-yl)-5-methyl-2-(1-methyl-1H-imidazol-2-yl)pyrrolo[2,1-f][1,2,4]triazin-4-amine], for which the “% inh” value with Erk1/2 phosphorylation was “D* (85-100% activation)”. In addition, the inhibition at 10 µM with TNF-alpha lay within 1 to 24%. For the same compound, the IC50 in experiment [1] (setting [2]) was 150 to 500 nM.

Regarding `COc1cccc(-c2cn3nc(-c4nccn4C)nc(N[C@@H]4CC[C@@H](OC)C4)c3c2-c2ccccc2)c1C` (racemic) [Compound 270, rac 6-(3-Methoxy-2-methylphenyl)-N-((1R,3R)-3-methoxycyclopentyl)-2-(1-methyl-1H-imidazol-2-yl)-5-phenylpyrrolo[2,1-f][1,2,4]triazin-4-amine], the “% inh” value in the experiment on Erk1/2 phosphorylation is “D (85-100% inhibition)”. Besides, the inhibition at 10 µM with TNF-alpha lay within 75 to 100%. Besides, the IC50 in experiment [1] (setting [2]) lay in the range of 150 to 500 nM.

These data come from patent publication US12459951B2, “Compounds that interact with RAS superfamily proteins for treatment of cancers, inflammatory diseases, rasopathies, and fibrotic disease” (SHY Therapeutics, LLC, priority 2022, dated 2025).
